In the supplement of paper PMC8633005:

What was measured:
Test in all cases: drug sensitivity score (DSS) (DSS (unitless, 0-50 scale)); higher = more sensitive (stronger viability inhibition); extreme values may be limits of the assay
Details in all cases: 72 h; culture: 2D
WM165 = tested on: WM165
Procedure, shortened: (§1)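 Melanoma cell lines and patient-derived melanoma cultures at 1000–1500 cells per well were exposed in 2D, in 384-well plates, to a 527-compound oncology library at five concentrations spanning a 10,000-fold range for 72 h at 37 °C. CellTiter-Glo luminescence then measured viability. From dose-response curves fitted in the in-house Breeze software, a drug sensitivity score, a modified area-under-curve measure, was obtained.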

Bowes = tested on: Bowes
Procedure, shortened: as §1

FM-MEL-3 = tested on: FM-MEL-3
Procedure, shortened: as §1

WM852 = tested on: WM852
Procedure, shortened: as §1

FM-MEL-2 = tested on: FM-MEL-2
Procedure, shortened: as §1

FM-MEL-6 = tested on: FM-MEL-6
Procedure, shortened: as §1

SK-MEL-28 = tested on: SK-MEL-28
Procedure, shortened: as §1

SK-MEL-2 = tested on: SK-MEL-2
Procedure, shortened: as §1

Compound	drug sensitivity score (WM165)	drug sensitivity score (Bowes)	drug sensitivity score (FM-MEL-3)	drug sensitivity score (WM852)	drug sensitivity score (FM-MEL-2)	drug sensitivity score (FM-MEL-6)	drug sensitivity score (SK-MEL-28)	drug sensitivity score (SK-MEL-2)
N#Cc1ccc2[nH]c(O)c(-c3ccc(CN4CCOCC4)cn3)c2c1 [AZD-1080]	2.2	0	0	0.6	0	0	0	0
Cc1ncc(-c2ccnc(Nc3ccc(S(C)(=O)=O)cc3)n2)n1C(C)C [AZD-5438]	10.6	10.7	4.7	6.2	2.2	7	9.9	4.2
Cc1cc([C@@H](C)Nc2ccccc2C(=O)O)c2nc(N3CCOCC3)cc(=O)n2c1 [AZD-6482]	0.5	1.2	1.7	0.4	1.9	1.4	3.3	0
C[C@@H](Nc1cc(F)cc(F)c1)c1cc(C(=O)N(C)C)cc2c(=O)cc(N3CCOCC3)oc12 [AZD-8186]	0.4	2.6	0	0.8	2.4	2.2	3.7	0
CCN1CCN(Cc2ccc(Nc3ncc(F)c(-c4cc(F)c5nc(C)n(C(C)C)c5c4)n3)nc2)CC1 [Abemaciclib]	6.6	9.6	7.2	5.3	4	0	8.7	0
CN(C)Cc1c(C(=O)NCCOc2ccc(C(=O)NO)cc2)oc2ccccc12 [Abexinostat]	17	10	14.6	9.1	15.9	14.7	13	15.9
C[C@]12CC[C@H](O)CC1=CC[C@@H]1[C@@H]2CC[C@]2(C)C(c3cccnc3)=CC[C@@H]12 [Abiraterone]	0	0	0	0	0	0	0	0
CC#CC(=O)N1CCC[C@H]1c1nc(-c2ccc(C(=O)Nc3ccccn3)cc2)c2c(N)nccn12 [Acalabrutinib]	0	0	2.2	0	1	3.4	0	0
COc1cc(C)c(/C=C/C(C)=C/C=C/C(C)=C/C(=O)O)c(C)c1C [Acitretin]	0	2.6	1.3	0	0	1.6	0	0
CN(C)C/C=C/C(=O)Nc1cc2c(Nc3ccc(F)c(Cl)c3)ncnc2cc1O[C@H]1CCOC1 [Afatinib]	0	2.2	0.5	0	0	0.3	0	0
Cn1ncc(Cl)c1-c1cc(C(=O)N[C@H](CN)Cc2cccc(F)c2)sc1Cl [Afuresertib]	1.5	0	1.9	0.5	1.5	2.3	1	0
COc1cccc2c1C(=O)c1c(O)c3c(c(O)c1C2=O)C[C@@](O)(/C(CO)=N/NC(=O)CCCCCN1C(=O)C=CC1=O)C[C@@H]3O[C@H]1C[C@H](N)[C@H](O)[C@H](C)O1 [Aldoxorubicin]	15.2	4.3	8	5.8	6.4	8.6	8.8	6.3
CCc1cc2c(cc1N1CCC(N3CCOCC3)CC1)C(C)(C)c1[nH]c3cc(C#N)ccc3c1C2=O [Alectinib]	0.2	0	0	0	0.6	0	0	0
COc1cc(Nc2ncc3c(n2)-c2ccc(Cl)cc2C(c2c(F)cccc2OC)=NC3)ccc1C(=O)O [Alisertib]	13.7	18.5	3.1	0	0.5	0.5	3.2	0
Oc1ncnc2[nH]ncc12 [Allopurinol]	0	0	0	0	0	0	0	0
Cc1nc(NC(=O)N2CCC[C@H]2C(N)=O)sc1-c1ccnc(C(C)(C)C(F)(F)F)c1 [Alpelisib]	0.6	0.3	2.7	1.9	2.1	0.7	1.2	0
O=C(Nc1cc(Oc2cc(F)c(NC(=O)C3(C(=O)Nc4ccc(F)cc4)CC3)cc2F)ccn1)C1CC1 [Altiratinib]	5	6.4	9	6.1	6.2	7.7	0	0

Compound	drug sensitivity score (WM165)	drug sensitivity score (Bowes)	drug sensitivity score (FM-MEL-3)	drug sensitivity score (WM852)	drug sensitivity score (FM-MEL-2)	drug sensitivity score (FM-MEL-6)	drug sensitivity score (SK-MEL-28)	drug sensitivity score (SK-MEL-2)
CN1CC[C@H](c2c(O)cc(O)c3c(=O)cc(-c4ccccc4Cl)oc23)[C@H](O)C1 [Alvocidib]	20.4	19.9	18.6	16.4	12.6	17.7	18.1	16.9
CCN(CC)CCNC(=O)c1c(C)[nH]c(/C=C2\C(=O)Nc3ccc(-c4csc(-c5ccccc5)n4)cc32)c1C [Amcasertib]	4.5	0.2	4.1	8.2	7.4	8.8	1.9	0
CCC1(c2ccc(N)cc2)CCC(=O)NC1=O (configuration not stated) [Aminoglutethimide]	0	0	0	0	0	0	0	0
COc1cc(NS(C)(=O)=O)ccc1Nc1c2ccccc2nc2ccccc12 [Amsacrine]	16.9	0.5	5.8	0	4.9	5.5	6.4	2.8
S=C(NCc1ccc2c(c1)OCO2)N1CCN(c2ncnc3c2oc2ccccc23)CC1 [Amuvatinib]	1.2	3.9	4.9	6.6	0	0	0	0
O=C1CN2Cc3c(ccc(Cl)c3Cl)N=C2N1 [Anagrelide]	0	9.6	1.8	0	0	0	0	0
CC(C)(C#N)c1cc(Cn2cncn2)cc(C(C)(C)C#N)c1 [Anastrozole]	0	0	0	0	0	0	0	0
CNC(=O)c1ccc(N2C(=S)N(c3cnc(C#N)c(C(F)(F)F)c3)C(=O)C23CCC3)cc1F [Apalutamide]	0	0	0	0	0	0	0	0
N#CC1(c2ccc(NC(=O)c3cccnc3NCc3ccncc3)cc2)CCCC1 [Apatinib]	0	0	0	0	0.1	0	0	0
O=C(Nc1ccc(OC(F)(F)Cl)cc1)c1cnc(N2CC[C@@H](O)C2)c(-c2cc[nH]n2)c1 [Asciminib]	0	0	0.1	0.3	0.6	0	0	0
CC(C)c1c(C(=O)Nc2ccccc2)c(-c2ccccc2)c(-c2ccc(F)cc2)n1CC[C@@H](O)C[C@@H](O)CC(=O)O [Atorvastatin]	7.6	5.8	1.5	4.4	0	0	1	1.1
CC(=O)OC[C@H]1O[C@@H]([S-])[C@H](OC(C)=O)[C@@H](OC(C)=O)[C@@H]1OC(C)=O.CCP(CC)CC.[Au+] [Auranofin]	9.5	12.4	9	5.6	0.5	2.6	3.2	3.7
CNC(=O)c1ccccc1Sc1ccc2c(/C=C/c3ccccn3)n[nH]c2c1 [Axitinib]	4.6	0.1	2.6	0.1	2.1	0	0.1	0
Nc1ncn([C@@H]2O[C@H](CO)[C@@H](O)[C@H]2O)c(=O)n1 [Azacitidine]	4.2	2.6	8.6	0.1	3.1	4.7	0.4	1.6
Cc1cc(-c2nc(-c3ccc(OC(F)(F)F)cc3)no2)nn1Cc1ccnc(N2CCN(C3CC3)CC2)c1 [BAY 87-2243]	5.5	12.3	6.6	25.9	0.2	0	1.6	0
Nc1nc(Nc2ccc3c(c2)CC[C@@H](N2CCCC2)CC3)nn1-c1cc2c(nn1)-c1ccccc1CCC2 [BGB324]	5.7	3.2	5	6.9	2.6	5.4	6.7	5.6
O=C1CCc2c(Oc3ccc4c(c3)[C@@H]3[C@H](O4)[C@H]3c3nc4cc(C(F)(F)F)ccc4[nH]3)ccnc2N1 [BGB-283]	15.6	4	16.5	4.5	12.1	6.2	16.5	7.4
